“And” between values parts separate entries of the source, which are not always exact repeats. Equal entries are not always repeated.
Columns and labels:
[1] = test system: Spinal Nerve Ligation (SNL) Model of Neuropathic Pain; assay: Spinal Nerve Ligation (SNL) model of neuropathic pain, tactile hypersensitivity; format: in vivo, rat; details: 30 mg/kg IP, 30-300 minutes after administration, FIG. 7
Source text: Subjects. Male Sprague-Dawley rats (Indianapolis, Ind.) weighing 150 to 200 g at time of arrival, were individually housed in wire cages in a climate-controlled room. A 12-hour light/dark cycle (lights on at 0630) was in effect, and food and water were available ad libitum.
Surgery—Spinal Nerve Ligation. Rats were anesthetized with 3.5% halothane in O2 at 1 L/min and maintained with 1.5% halothane in O2 during surgery. Ligation of the L5 and L6 nerves was produced by an incision through the left paraspinal muscles. The left L5 and L6 spinal nerves were isolated adjacent to the vertebral column and ligated tightly with 6-0 silk suture just distal to the dorsal root ganglion. The wound was closed in layers using 4-0 silk suture and wound clips. Testing began 7 days after surgery.
Assessment of tactile hypersensitivity. […] Baseline tactile sensitivity was assessed using a series of calibrated von Frey monofilaments (Stoelting; Wood Dale, Ill.) 0 to 3 days before surgery. […] The ability of a single dose of test compound to reverse established hypersensitivity was assessed using a time course procedure. […]
Results are presented as the 50% threshold values (50% threshold in g force) estimated by the Dixon non-parametric test. […] Significant main effects were analyzed further by subsequent least significant difference analysis. […]

[2] = test system: ovariectomized (OVX) rats; assay: Telemetry rat model of ovariectomy-induced thermoregulatory dysfunction (tail skin temperature); format: in vivo; details: 30 mg/kg, sc
Source text: This model has been modified from a previously reported protocol describing estrogen regulation of diurnal tail skin temperature (TST) patterns (Berendsen, et al., European Journal of Pharmacology, 2001, 419(1): 47-54). […] A temperature and physical activity transmitter (PhysioTel TA10TA-F40, Data Sciences International) was implanted subcutaneously in the dorsal scapular region and the tip of the temperature probe was tunneled subcutaneously 2.5 cm beyond the base of the tail. After a 7-day recovery period, TST readings were continuously recorded for the remainder of the study. Tail skin temperature readings were collected from each animal every 5 minutes with values obtained over a 10 second sampling period. The day before test day, an average baseline TST value was calculated for each animal by averaging temperature readings recorded during the 12 hour active (dark) phase. […]
Statistical analysis: Evaluation of a compound's ability to restore normal lowering of TST in the telemetry model was analyzed using hourly TST values calculated for each animal by averaging the 12 temperature readings obtained every 5 minutes over that recording time. […]
The effect of test compound is measured by evaluating the following parameters in this model: onset of action, duration of effect on TST, maximal change in TST and mean change in TST over the duration of the compound effect.

[3] = molecular target: T1, human dopamine transporter (hDAT) (Homo sapiens, UniProt Q01959); assay: Dopamine transporter (hDAT) membrane binding assay
T1 construct: purchased Perkin Elmer RBHDATM
Procedure: (§1) MDCK-Net6 cells, stably transfected with human hNET [15] were cultured in growth medium containing high glucose DMEM (Gibco, Cat. No. 11995), 10% FBS (dialyzed, heat-inactivated, US Bio-Technologies, Lot FBD1129HI) and 500 μg/ml G418 (Gibco, Cat. No. 10131). Cells were plated at 300,000/T75 flask and cells were split twice weekly. The JAR cell line (human placental choriocarcinoma) was purchased from ATCC (Cat. No. HTB-144). The cells were cultured in growth medium containing RPMI 1640 (Gibco, Cat. No. 72400), 10% FBS (Irvine, Cat. No. 3000), 1% sodium pyruvate (Gibco, Cat. No. 1136) and 0.25% glucose. Cells were plated at 250,000 cells/T75 flask and split twice weekly. For cell based assays, cells were plated in Wallac 96-well sterile plates (Perkin Elmer, Cat. No. 3983498). For the human dopamine transporter (hDAT) binding assay, membranes from cells expressing recombinant hDAT are purchased from Perkin Elmer (Cat. No. RBHDATM, Lot#2227) and maintained at −80° C. until assay day.
For each experiment, a data stream of cpm values collected from the Wallac Microbeta counter was downloaded to a Microsoft Excel statistical application program. Calculations of IC50/EC50 values were made using the transformed-both-sides logistic dose response program written by Wyeth Biometrics Department.

[4] = molecular target: human norepinephrine transporter (hNET) (Homo sapiens, UniProt P23975); assay: cell-based
Procedure: as §1
On day 1, cells were plated at 3,000 cells/well in growth medium and maintained in a cell incubator (37° C., 5% CO2). […] The plates were counted in a Wallac Microbeta counter (PerkinElmer) to collect the raw cpm data. […]

[5] = molecular target: T2, human serotonin transporter (hSERT) (Homo sapiens, UniProt P31645); assay: Serotonin (5-HT) uptake assay in JAR cells; format: cell-based; details: [3H]5-HT uptake, read-out: hSERT function uptake (EC50 in nm)
T2 construct: The methods for 5-HT functional reuptake using the JAR cell line; host or cells: JAR (human placental choriocarcinoma), staurosporine-stimulated
Procedure: as §1
The methods for 5-HT functional reuptake using the JAR cell line were modified using a previous literature report. On day 1, cells were plated at 15,000 cells/well in 96-well plates containing growth medium (RPMI 1640 with 10% FBS) and maintained in a cell incubator (37° C., 5% CO2). […] The plates were counted in a Wallac Microbeta counter (PerkinElmer) to collect the raw cpm data. […]

T1 sequence (Q01959 whole entry): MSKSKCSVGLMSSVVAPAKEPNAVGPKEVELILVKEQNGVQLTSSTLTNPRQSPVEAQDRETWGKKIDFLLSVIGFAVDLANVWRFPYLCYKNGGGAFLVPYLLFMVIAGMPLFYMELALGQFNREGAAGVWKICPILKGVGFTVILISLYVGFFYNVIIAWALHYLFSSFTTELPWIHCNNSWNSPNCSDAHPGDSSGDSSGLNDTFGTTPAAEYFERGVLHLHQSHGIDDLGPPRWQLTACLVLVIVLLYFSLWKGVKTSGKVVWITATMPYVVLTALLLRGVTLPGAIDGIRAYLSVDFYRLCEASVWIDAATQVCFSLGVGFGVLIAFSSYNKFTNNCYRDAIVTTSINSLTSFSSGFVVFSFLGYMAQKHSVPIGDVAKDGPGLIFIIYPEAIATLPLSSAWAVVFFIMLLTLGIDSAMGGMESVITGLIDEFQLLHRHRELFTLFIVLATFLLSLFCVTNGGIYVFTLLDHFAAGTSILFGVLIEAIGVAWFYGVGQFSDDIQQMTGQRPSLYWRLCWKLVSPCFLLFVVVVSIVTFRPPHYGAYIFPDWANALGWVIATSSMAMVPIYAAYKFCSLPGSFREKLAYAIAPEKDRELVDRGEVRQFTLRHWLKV
human norepinephrine transporter (hNET), sequence (P23975 whole entry): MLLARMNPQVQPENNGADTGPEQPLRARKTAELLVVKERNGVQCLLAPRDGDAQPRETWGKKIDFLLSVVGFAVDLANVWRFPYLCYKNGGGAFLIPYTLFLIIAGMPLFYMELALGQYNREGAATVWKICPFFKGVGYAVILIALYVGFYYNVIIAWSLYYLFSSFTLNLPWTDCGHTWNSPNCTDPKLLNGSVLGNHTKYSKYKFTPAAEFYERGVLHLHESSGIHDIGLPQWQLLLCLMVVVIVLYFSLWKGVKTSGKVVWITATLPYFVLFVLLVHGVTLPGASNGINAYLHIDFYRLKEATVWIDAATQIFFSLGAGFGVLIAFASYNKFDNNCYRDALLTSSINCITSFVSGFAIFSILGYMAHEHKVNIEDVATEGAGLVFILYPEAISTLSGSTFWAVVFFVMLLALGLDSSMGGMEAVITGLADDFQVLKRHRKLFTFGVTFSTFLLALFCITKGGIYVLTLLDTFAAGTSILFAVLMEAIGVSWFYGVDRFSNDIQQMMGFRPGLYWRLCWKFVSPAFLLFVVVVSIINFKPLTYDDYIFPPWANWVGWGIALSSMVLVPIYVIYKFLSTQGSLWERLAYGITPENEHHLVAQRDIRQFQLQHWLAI
T2 sequence (P31645 whole entry): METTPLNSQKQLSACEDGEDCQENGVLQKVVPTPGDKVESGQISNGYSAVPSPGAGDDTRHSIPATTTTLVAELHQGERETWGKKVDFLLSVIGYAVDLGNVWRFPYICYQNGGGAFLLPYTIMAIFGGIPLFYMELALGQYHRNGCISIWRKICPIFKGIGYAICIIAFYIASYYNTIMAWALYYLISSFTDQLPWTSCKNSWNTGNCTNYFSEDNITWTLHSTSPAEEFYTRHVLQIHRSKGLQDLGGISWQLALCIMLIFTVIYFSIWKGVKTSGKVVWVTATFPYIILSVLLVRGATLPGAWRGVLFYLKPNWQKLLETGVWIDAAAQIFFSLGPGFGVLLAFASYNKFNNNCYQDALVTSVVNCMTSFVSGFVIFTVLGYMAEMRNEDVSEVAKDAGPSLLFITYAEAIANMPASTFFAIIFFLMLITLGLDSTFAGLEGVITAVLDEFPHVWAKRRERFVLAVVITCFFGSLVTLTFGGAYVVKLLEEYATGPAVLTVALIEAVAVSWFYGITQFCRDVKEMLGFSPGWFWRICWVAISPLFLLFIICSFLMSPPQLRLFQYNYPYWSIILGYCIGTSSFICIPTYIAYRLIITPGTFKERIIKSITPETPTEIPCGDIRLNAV

Row | Structure (SMILES) | Reversal of tactile allodynia in the SNL neuropathic pain model [1] | Restoration of normal TST in OVX-induced thermoregulatory dysfunction telemetry model [2] | hDAT binding (% I at 1 μM) ([3]; 1 μM) [% I] | hDAT binding (% I at 10 μM) [3] | EC50 [4] [µM] | EC50 [5] [µM]
1 | Clc1ccc(C23CNCC2C3)cc1Cl (racemic) [Racemic 1-(3,4-dichlorophenyl)-3-azabicyclo[3.1.0]hexane, 1-(3,4-dichlorophenyl)-3-azabicyclo[3.1.0]hexane] | significantly reverses tactile allodynia |  |  |  |  | 
2 | Cc1ccc(C23CNCC2C3)cc1 (racemic) [Racemic 1-(4-methylphenyl)-3-azabicyclo[3.1.0]hexane, 1-(4-methylphenyl)-3-azabicyclo[3.1.0]hexane] |  | restores normal TST | 26.5 | 45 % I and 52.1 % I |  | 
3 | Cc1ccc([C@@]23CNC[C@@H]2C3)cc1 (single isomer, unassigned) [(+)-1-(4-methylphenyl)-3-azabicyclo[3.1.0]hexane] |  | restores normal TST |  | 51 % I | 0.148 | 7.35
